Tests used:
Format in all cases: in vivo
[1] = test system: Italian ryegrass (Lolium multiflorum); assay: Test A preemergence, visual plant response rating; details: for Ryegrass, Italian plant response rating: 125 g ai/ha, preemergence, 0 to 100 scale, 0 no effect, 100 complete control; for Ryegrass, Italian plant response rating (0 to 100 scale): 500 g ai/ha Preemergence, approx. 10 days
Method in brief: (§1)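 Ratings use a 0–100 visual scale (100 = complete control) against untreated controls, scored about 10 days after greenhouse treatment. Test chemicals were formulated in surfactant-containing non-phytotoxic solvent and applied either as soil spray after planting (preemergence) or onto one- to two-leaf, 2–10 cm plants (postemergence).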

[2] = test system: barnyardgrass (Echinochloa crus-galli); assay: Test A preemergence, visual plant response rating; details: for Barnyardgrass plant response rating: 125 g ai/ha, preemergence, 0 to 100 scale, 0 no effect, 100 complete control; for Barnyardgrass plant response rating (0 to 100 scale): 500 g ai/ha Preemergence, approx. 10 days
Method in brief: as §1

[3] = test system: foxtail, giant (giant foxtail, Setaria faberii); assay: Test A preemergence, visual plant response rating; details: for Foxtail, Giant plant response rating: 125 g ai/ha, preemergence, 0 to 100 scale, 0 no effect, 100 complete control; for Foxtail, Giant plant response rating (0 to 100 scale): 500 g ai/ha Preemergence, approx. 10 days
Method in brief: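 Formulated in a non-phytotoxic solvent mixture including surfactant, each test chemical was sprayed onto the soil surface after sowing, or onto seedlings 2 to 10 cm high. Roughly 10 days later, plants were compared with untreated controls and rated for injury from 0 (no effect) to 100 (complete control).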

[4] = test system: kochia (Kochia scoparia); assay: Test A preemergence, visual plant response rating; details: for Kochia plant response rating: 125 g ai/ha, preemergence, 0 to 100 scale, 0 no effect, 100 complete control; for Kochia plant response rating (0 to 100 scale): 500 g ai/ha Preemergence, approx. 10 days
Method in brief: as §1

[5] = test system: pigweed (Amaranthus retroflexus); assay: Test A preemergence, visual plant response rating; details: for Pigweed plant response rating: 125 g ai/ha, preemergence, 0 to 100 scale, 0 no effect, 100 complete control; for Pigweed plant response rating (0 to 100 scale): 500 g ai/ha Preemergence, approx. 10 days
Method in brief: as §1

[6] = test system: ragweed (common ragweed, Ambrosia elatior); assay: Test A preemergence, visual plant response rating; details: for Ragweed plant response rating: 125 g ai/ha, preemergence, 0 to 100 scale, 0 no effect, 100 complete control; for Ragweed plant response rating (0 to 100 scale): 500 g ai/ha Preemergence, approx. 10 days
Method in brief: as §1

[7] = test system: Italian ryegrass (Lolium multiflorum); assay: Test A postemergence, visual plant response rating; details: for Ryegrass, Italian plant response rating (0 to 100 scale): 500 g ai/ha, postemergence, 0 is no effect, 100 is complete control; for Ryegrass, Italian plant response rating: Postemergence, 125 g ai/ha, 0 to 100 scale (0 no effect, 100 complete control)
Method in brief: as §1

[8] = test system: barnyardgrass (Echinochloa crus-galli); assay: Test A postemergence, visual plant response rating; details: for Barnyardgrass plant response rating (0 to 100 scale): 500 g ai/ha, postemergence, 0 is no effect, 100 is complete control; for Barnyardgrass plant response rating: Postemergence, 125 g ai/ha, 0 to 100 scale (0 no effect, 100 complete control)
Method in brief: as §1

[9] = test system: blackgrass (Alopecurus myosuroides); assay: Test A postemergence, visual plant response rating; details: for Blackgrass plant response rating (0 to 100 scale): 500 g ai/ha, postemergence, 0 is no effect, 100 is complete control; for Blackgrass plant response rating: Postemergence, 125 g ai/ha, 0 to 100 scale (0 no effect, 100 complete control)
Method in brief: as §1

[10] = test system: corn (Zea mays); assay: Test A postemergence, visual plant response rating; details: for Corn plant response rating (0 to 100 scale): 500 g ai/ha, postemergence, 0 is no effect, 100 is complete control; for Corn plant response rating: Postemergence, 125 g ai/ha, 0 to 100 scale (0 no effect, 100 complete control)
Method in brief: as §1

[11] = test system: foxtail, giant (giant foxtail, Setaria faberii); assay: Test A postemergence, visual plant response rating; details: for Foxtail, Giant plant response rating (0 to 100 scale): 500 g ai/ha, postemergence, 0 is no effect, 100 is complete control; for Foxtail, Giant plant response rating: Postemergence, 125 g ai/ha, 0 to 100 scale (0 no effect, 100 complete control)
Method in brief: as §1

[12] = test system: galium (catchweed bedstraw, Galium aparine); assay: Test A postemergence, visual plant response rating; details: for Galium plant response rating (0 to 100 scale): 500 g ai/ha, postemergence, 0 is no effect, 100 is complete control; for Galium plant response rating: Postemergence, 125 g ai/ha, 0 to 100 scale (0 no effect, 100 complete control)
Method in brief: as §1

[13] = test system: kochia (Kochia scoparia); assay: Test A postemergence, visual plant response rating; details: for Kochia plant response rating (0 to 100 scale): 500 g ai/ha, postemergence, 0 is no effect, 100 is complete control; for Kochia plant response rating: Postemergence, 125 g ai/ha, 0 to 100 scale (0 no effect, 100 complete control)
Method in brief: as §1

[14] = test system: pigweed (Amaranthus retroflexus); assay: Test A postemergence, visual plant response rating; details: for Pigweed plant response rating (0 to 100 scale): 500 g ai/ha, postemergence, 0 is no effect, 100 is complete control; for Pigweed plant response rating: Postemergence, 125 g ai/ha, 0 to 100 scale (0 no effect, 100 complete control)
Method in brief: as §1

[15] = test system: ragweed (common ragweed, Ambrosia elatior); assay: Test A postemergence, visual plant response rating; details: for Ragweed plant response rating (0 to 100 scale): 500 g ai/ha, postemergence, 0 is no effect, 100 is complete control; for Ragweed plant response rating: Postemergence, 125 g ai/ha, 0 to 100 scale (0 no effect, 100 complete control)
Method in brief: as §1

[16] = test system: wheat (Triticum aestivum); assay: Test A postemergence, visual plant response rating; details: for Wheat plant response rating (0 to 100 scale): 500 g ai/ha, postemergence, 0 is no effect, 100 is complete control; for Wheat plant response rating: Postemergence, 125 g ai/ha, 0 to 100 scale (0 no effect, 100 complete control)
Method in brief: as §1

[17] = test system: barnyardgrass (Echinochloa crus-galli); assay: Test B flooded paddy test, visual plant response rating; details: 250 g ai/ha, Flood, applied to paddy water, 2-leaf stage, evaluated after 13 to 15 days
Method in brief: (§2)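 2-leaf plants; pots flooded 3 cm over soil surface; compound dosed straight into the floodwater; depth kept constant; greenhouse 13–15 d; visual rating vs. untreated controls.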

[18] = test system: ducksalad (Heteranhera limosa); assay: as above; details: 250 g ai/ha, Flood, applied to paddy water, 2-leaf stage, evaluated after 13 to 15 days
Method in brief: as §2

[19] = test system: rice (Oryza sativa); assay: as above; details: 250 g ai/ha, Flood, applied to paddy water, 2-leaf stage, evaluated after 13 to 15 days
Method in brief: as §2

[20] = test system: sedge, umbrella (small-flower umbrella sedge, Cyperus difformis); assay: as above; details: 250 g ai/ha, Flood, applied to paddy water, 2-leaf stage, evaluated after 13 to 15 days
Method in brief: as §2

| Structure (SMILES) | Ryegrass, Italian plant response rating [1] | Ryegrass, Italian plant response rating (0 to 100 scale) [1] | Barnyardgrass plant response rating [2] | Barnyardgrass plant response rating (0 to 100 scale) [2] | Foxtail, Giant plant response rating [3] | Foxtail, Giant plant response rating (0 to 100 scale) [3] | Kochia plant response rating [4] | Kochia plant response rating (0 to 100 scale) [4] | Pigweed plant response rating [5] | Pigweed plant response rating (0 to 100 scale) [5] | Ragweed plant response rating [6] | Ragweed plant response rating (0 to 100 scale) [6] | Ryegrass, Italian plant response rating (0 to 100 scale) [7] | Ryegrass, Italian plant response rating [7] | Barnyardgrass plant response rating (0 to 100 scale) [8] | Barnyardgrass plant response rating [8] | Blackgrass plant response rating (0 to 100 scale) [9] | Blackgrass plant response rating [9] | Corn plant response rating (0 to 100 scale) [10] | Corn plant response rating [10] | other results |
| --- | --- | --- | --- | --- | --- | --- | --- | --- | --- | --- | --- | --- | --- | --- | --- | --- | --- | --- | --- | --- | --- |
| CO/N=C(\c1ccsc1C)c1c(O)c(C)nn(C)c1=O [Compound 43] | 0 | 0 | 0 | 0 | 0 | 0 | 0 | 0 | 0 | 30 | 0 | 20 | 30 | 0 | 0 | 0 | 20 | 0 | 0 | 0 | Foxtail, Giant plant response rating (0 to 100 scale) [11]: 0; Foxtail, Giant plant response rating [11]: 0; Galium plant response rating (0 to 100 scale) [12]: 50; Galium plant response rating [12]: 20; Kochia plant response rating (0 to 100 scale) [13]: 20; Kochia plant response rating [13]: 0; Pigweed plant response rating (0 to 100 scale) [14]: 60; Pigweed plant response rating [14]: 20; Ragweed plant response rating (0 to 100 scale) [15]: 30; Ragweed plant response rating [15]: 20; Wheat plant response rating (0 to 100 scale) [16]: 0; Wheat plant response rating [16]: 0; Plant response rating, Barnyardgrass (0 to 100 scale, 0 is no effect, 100 is complete control) [17]: 0; Plant response rating, Ducksalad (0 to 100 scale, 0 is no effect, 100 is complete control) [18]: 0; Plant response rating, Rice (0 to 100 scale, 0 is no effect, 100 is complete control) [19]: 0; Plant response rating, Sedge, Umbrella (0 to 100 scale, 0 is no effect, 100 is complete control) [20]: 0 |
| CO/N=C(\c1csc(C)c1)c1c(O)c(C)nn(C)c1=O [Compound 44] | 0 | 50 | 0 | 10 | 0 | 10 | 0 | 0 | 0 | 0 | 0 | 0 | 0 | 20 | 30 | 0 | 30 | 0 | 20 | 0 | Foxtail, Giant plant response rating (0 to 100 scale) [11]: 50; Foxtail, Giant plant response rating [11]: 0; Galium plant response rating (0 to 100 scale) [12]: 50; Galium plant response rating [12]: 20; Kochia plant response rating (0 to 100 scale) [13]: 0; Kochia plant response rating [13]: 0; Pigweed plant response rating (0 to 100 scale) [14]: 10; Pigweed plant response rating [14]: 10; Ragweed plant response rating (0 to 100 scale) [15]: 40; Ragweed plant response rating [15]: 0; Wheat plant response rating (0 to 100 scale) [16]: 0; Wheat plant response rating [16]: 0; Plant response rating, Barnyardgrass (0 to 100 scale, 0 is no effect, 100 is complete control) [17]: 0; Plant response rating, Ducksalad (0 to 100 scale, 0 is no effect, 100 is complete control) [18]: 0; Plant response rating, Rice (0 to 100 scale, 0 is no effect, 100 is complete control) [19]: 0; Plant response rating, Sedge, Umbrella (0 to 100 scale, 0 is no effect, 100 is complete control) [20]: 0 |
| CON=C(c1c(OC(C)=O)c(C)nn(C)c1=O)c1cccc2ccccc12 [Compound 48] | 40 | 70 | 20 | 70 | 90 | 90 | 40 | 100 | 30 | 100 | 100 | 100 | 80 | 70 | 30 | 20 | 90 | 70 | 80 | 10 | Foxtail, Giant plant response rating (0 to 100 scale) [11]: 80; Foxtail, Giant plant response rating [11]: 30; Galium plant response rating (0 to 100 scale) [12]: 90; Galium plant response rating [12]: 80; Kochia plant response rating (0 to 100 scale) [13]: 80; Kochia plant response rating [13]: 70; Pigweed plant response rating (0 to 100 scale) [14]: 90; Pigweed plant response rating [14]: 80; Ragweed plant response rating (0 to 100 scale) [15]: 90; Ragweed plant response rating [15]: 80; Wheat plant response rating (0 to 100 scale) [16]: 10; Wheat plant response rating [16]: 0; Plant response rating, Barnyardgrass (0 to 100 scale, 0 is no effect, 100 is complete control) [17]: 0; Plant response rating, Ducksalad (0 to 100 scale, 0 is no effect, 100 is complete control) [18]: 0; Plant response rating, Rice (0 to 100 scale, 0 is no effect, 100 is complete control) [19]: 0; Plant response rating, Sedge, Umbrella (0 to 100 scale, 0 is no effect, 100 is complete control) [20]: 0 |
